Literature values, collected in patent US12121558B2 (priority 2019, dated 2024).

For `O=c1c(O)c(-c2ccc(O)c(O)c2)oc2cc(O)cc(O)c12` [quercetin, Quercetin], the elimination half-life (after oral ingestion of quercetin containing foods or supplements) is listed as 1 to 2 h and the bioavailability (in humans, low and highly variable) is listed as 0-50%.
